Results as given in publication PMC8185074, “Anchor extension: a structure-guided approach to design cyclic peptides targeting enzyme active sites” (Nature Communications, 2021).
Peptide text beside a SMILES is read from it.

Experiments:
HDAC2 = biological target: T1, HDAC2 (Homo sapiens, UniProt Q92769); assay: HDAC2 inhibition, full IC50 measurement (Reaction Biology; fluorogenic p53 peptide RHKK(Ac)AMC); type: biochemical
T1 construct: purchased Reaction Biology Corporation (assay run by the CRO)
Procedure: (§1) The assay was performed using 50 μM fluorogenic peptide from p53 residues 379-382 [RHKK(Ac)AMC] in a base reaction buffer of 50 mM Tris-HCl at pH 8.0, 137 mM NaCl, 2.7 mM KCl, 1 mM MgCl2, and freshly added 1 mg/ml BSA and 1% DMSO. Peptides were first dissolved in DMSO and then added to the reaction mixture with the enzyme using acoustic technique, enough to reach the desired concentration for that assay point. Peptide concentrations were calculated based on mass of lyophilized peptide and its molecular weight. The substrate was then added and incubated for 1 hour at 30 °C in a sealed container. After the incubation, developer was added to stop the reaction and develop color. Kinetic measurements were then performed for 20 min with Envision with 5 min intervals (Ex/Em = 360/460 nm). The endpoint after plateau was taken for IC50 measurement.
(§2) In cases where duplicate measures are used, average data is reported in the main text or Supplementary Tables.

HDAC6 = biological target: T2, HDAC6 (Homo sapiens, UniProt Q9UBN7); assay: HDAC6 inhibition, full IC50 measurement (Reaction Biology; fluorogenic p53 peptide RHKK(Ac)AMC); type: biochemical
T2 construct: purchased Reaction Biology Corporation (assay run by the CRO)
T2 sequence (Q9UBN7 1-1215): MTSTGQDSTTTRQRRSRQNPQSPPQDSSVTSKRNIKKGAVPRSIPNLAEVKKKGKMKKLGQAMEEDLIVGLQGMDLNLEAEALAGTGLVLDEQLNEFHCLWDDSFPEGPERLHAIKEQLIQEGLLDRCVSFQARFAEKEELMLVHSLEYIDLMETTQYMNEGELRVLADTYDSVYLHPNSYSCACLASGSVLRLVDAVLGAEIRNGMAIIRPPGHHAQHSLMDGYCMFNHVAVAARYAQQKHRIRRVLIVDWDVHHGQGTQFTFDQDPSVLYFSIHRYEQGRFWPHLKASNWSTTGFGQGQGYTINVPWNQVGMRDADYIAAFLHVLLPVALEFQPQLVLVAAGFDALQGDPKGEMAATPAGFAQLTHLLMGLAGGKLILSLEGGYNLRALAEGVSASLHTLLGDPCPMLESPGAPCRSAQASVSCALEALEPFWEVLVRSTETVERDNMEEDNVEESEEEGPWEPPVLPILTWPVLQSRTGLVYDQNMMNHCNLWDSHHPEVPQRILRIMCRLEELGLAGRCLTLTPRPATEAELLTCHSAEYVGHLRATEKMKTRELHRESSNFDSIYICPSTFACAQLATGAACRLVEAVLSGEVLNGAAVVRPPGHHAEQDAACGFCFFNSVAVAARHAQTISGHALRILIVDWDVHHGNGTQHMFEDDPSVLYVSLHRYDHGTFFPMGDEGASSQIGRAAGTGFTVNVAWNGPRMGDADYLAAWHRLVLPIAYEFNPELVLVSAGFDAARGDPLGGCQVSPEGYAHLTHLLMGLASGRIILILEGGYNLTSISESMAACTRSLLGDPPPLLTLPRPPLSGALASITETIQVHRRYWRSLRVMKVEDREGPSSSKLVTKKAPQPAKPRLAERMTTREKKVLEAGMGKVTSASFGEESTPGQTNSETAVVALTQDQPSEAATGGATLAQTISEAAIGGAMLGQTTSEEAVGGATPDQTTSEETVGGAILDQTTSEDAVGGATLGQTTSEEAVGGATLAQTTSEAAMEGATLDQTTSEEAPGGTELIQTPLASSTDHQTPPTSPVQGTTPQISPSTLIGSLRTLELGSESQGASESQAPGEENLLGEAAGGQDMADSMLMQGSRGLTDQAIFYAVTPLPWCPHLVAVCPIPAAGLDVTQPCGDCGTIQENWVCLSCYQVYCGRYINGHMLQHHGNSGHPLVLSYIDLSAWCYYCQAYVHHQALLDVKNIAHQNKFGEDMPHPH
Procedure: as §1, §2

T1 sequence (Q92769 whole entry): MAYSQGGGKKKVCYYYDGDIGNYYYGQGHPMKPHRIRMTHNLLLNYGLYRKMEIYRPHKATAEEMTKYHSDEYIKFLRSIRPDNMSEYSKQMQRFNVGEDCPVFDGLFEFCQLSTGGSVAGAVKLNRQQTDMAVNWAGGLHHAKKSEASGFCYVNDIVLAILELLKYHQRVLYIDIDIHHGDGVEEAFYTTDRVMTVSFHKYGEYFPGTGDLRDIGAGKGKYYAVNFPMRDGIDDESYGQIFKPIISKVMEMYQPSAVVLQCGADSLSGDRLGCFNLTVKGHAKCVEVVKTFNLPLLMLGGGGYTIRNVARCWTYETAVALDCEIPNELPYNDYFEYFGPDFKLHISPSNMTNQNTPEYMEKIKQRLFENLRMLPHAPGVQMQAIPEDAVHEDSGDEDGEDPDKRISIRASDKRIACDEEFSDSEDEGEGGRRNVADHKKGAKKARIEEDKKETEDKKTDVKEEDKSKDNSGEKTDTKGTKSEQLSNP

CCCC[C@H]1NC(=O)[C@H](CC(=O)O)NC(=O)[C@@H](CO)NC(=O)[C@@H](C)NC(=O)[C@H](CCCCN)NC(=O)[C@@H](CCCCN)NC(=O)[C@H](Cc2ccccc2)NC(=O)[C@H](CCCCCS)NC1=O [des4.3.1.2, SHA-Phe-dLys-Lys-dAla-dSer-Asp-dNle] (HELM PEPTIDE1{D.[CCCC[C@@H](N[*:1])C(=O)[*:2]].[O=C([C@H](CCCCCS)N[*:1])[*:2]].F.[dK].K.[dA].[dS]}$PEPTIDE1,PEPTIDE1,1:R1-8:R2$$$V2.0)
HDAC2 activity raw data (signal) (HDAC2; Conc. 1.00E-05 M, t1): 1148842 | HDAC2 activity raw data (signal) (HDAC2; Conc. 1.00E-05 M, t2): 1124925 | HDAC2 activity raw data (signal) (HDAC2; Conc. 1.11E-06 M, t1): 1654730 | HDAC2 activity raw data (signal) (HDAC2; Conc. 1.11E-06 M, t2): 1704574 | HDAC2 activity raw data (signal) (HDAC2; Conc. 1.23E-07 M, t1): 1694685 | HDAC2 activity raw data (signal) (HDAC2; Conc. 1.23E-07 M, t2): 1708262 | HDAC2 activity raw data (signal) (HDAC2; Conc. 1.37E-08 M, t1): 1883329 | HDAC2 activity raw data (signal) (HDAC2; Conc. 1.37E-08 M, t2): 1685214 | HDAC2 activity raw data (signal) (HDAC2; Conc. 1.52E-09 M, t1): 1920222 | HDAC2 activity raw data (signal) (HDAC2; Conc. 1.52E-09 M, t2): 1770203 | HDAC2 activity raw data (signal) (HDAC2; Conc. 3.33E-06 M, t1): 1489645 | HDAC2 activity raw data (signal) (HDAC2; Conc. 3.33E-06 M, t2): 1397108 | HDAC2 activity raw data (signal) (HDAC2; Conc. 3.70E-07 M, t1): 1733657 | HDAC2 activity raw data (signal) (HDAC2; Conc. 3.70E-07 M, t2): 1639218 | HDAC2 activity raw data (signal) (HDAC2; Conc. 4.12E-08 M, t1): 1743081 | HDAC2 activity raw data (signal) (HDAC2; Conc. 4.12E-08 M, t2): 1732768 | HDAC2 activity raw data (signal) (HDAC2; Conc. 4.57E-09 M, t1): 1828637 | HDAC2 activity raw data (signal) (HDAC2; Conc. 4.57E-09 M, t2): 1698186 | HDAC2 activity raw data (signal) (HDAC2; Conc. 5.08E-10 M, t1): 1916889 | HDAC2 activity raw data (signal) (HDAC2; Conc. 5.08E-10 M, t2): 1862597 | 6-Selectivity: fold potency for HDAC6 over HDAC2 (HDAC6): > 100 fold | HDAC6 activity raw data (signal) (HDAC6; Conc. 1.00E-05 M, t1): 342990 | HDAC6 activity raw data (signal) (HDAC6; Conc. 1.00E-05 M, t2): 304678 | HDAC6 activity raw data (signal) (HDAC6; Conc. 1.11E-06 M, t1): 1091316 | HDAC6 activity raw data (signal) (HDAC6; Conc. 1.11E-06 M, t2): 1078978 | HDAC6 activity raw data (signal) (HDAC6; Conc. 1.23E-07 M, t1): 1593999 | HDAC6 activity raw data (signal) (HDAC6; Conc. 1.23E-07 M, t2): 1556041 | HDAC6 activity raw data (signal) (HDAC6; Conc. 1.37E-08 M, t1): 1690122 | HDAC6 activity raw data (signal) (HDAC6; Conc. 1.37E-08 M, t2): 1641196 | HDAC6 activity raw data (signal) (HDAC6; Conc. 1.52E-09 M, t1): 1700998 | HDAC6 activity raw data (signal) (HDAC6; Conc. 1.52E-09 M, t2): 1770848 | HDAC6 activity raw data (signal) (HDAC6; Conc. 3.33E-06 M, t1): 689811 | HDAC6 activity raw data (signal) (HDAC6; Conc. 3.33E-06 M, t2): 662211 | HDAC6 activity raw data (signal) (HDAC6; Conc. 3.70E-07 M, t1): 1440305 | HDAC6 activity raw data (signal) (HDAC6; Conc. 3.70E-07 M, t2): 1367836 | HDAC6 activity raw data (signal) (HDAC6; Conc. 4.12E-08 M, t1): 1630143 | HDAC6 activity raw data (signal) (HDAC6; Conc. 4.12E-08 M, t2): 1649164 | HDAC6 activity raw data (signal) (HDAC6; Conc. 4.57E-09 M, t1): 1710532 | HDAC6 activity raw data (signal) (HDAC6; Conc. 4.57E-09 M, t2): 1671153 | HDAC6 activity raw data (signal) (HDAC6; Conc. 5.08E-10 M, t1): 1797804 | HDAC6 activity raw data (signal) (HDAC6; Conc. 5.08E-10 M, t2): 1739375

CCCC[C@H]1NC(=O)[C@H](Cc2ccccc2)NC(=O)[C@H](CCCCCS)NC(=O)[C@@H](CCCNC(=N)N)NC(=O)[C@H](C)NC(=O)[C@@H](CO)NC(=O)[C@@H](C)NC(=O)[C@H](CCCCN)NC1=O [des4.3.1.3, SHA-Phe-dNle-Lys-dAla-dSer-Ala-dArg] (HELM PEPTIDE1{A.[dR].[O=C([C@H](CCCCCS)N[*:1])[*:2]].F.[CCCC[C@@H](N[*:1])C(=O)[*:2]].K.[dA].[dS]}$PEPTIDE1,PEPTIDE1,1:R1-8:R2$$$V2.0)
HDAC2 activity raw data (signal) (HDAC2; Conc. 1.00E-05 M, t1): 193929 | HDAC2 activity raw data (signal) (HDAC2; Conc. 1.00E-05 M, t2): 207672 | HDAC2 activity raw data (signal) (HDAC2; Conc. 1.11E-06 M, t1): 922315 | HDAC2 activity raw data (signal) (HDAC2; Conc. 1.11E-06 M, t2): 983057 | HDAC2 activity raw data (signal) (HDAC2; Conc. 1.23E-07 M, t1): 1473586 | HDAC2 activity raw data (signal) (HDAC2; Conc. 1.23E-07 M, t2): 1600746 | HDAC2 activity raw data (signal) (HDAC2; Conc. 1.37E-08 M, t1): 1736023 | HDAC2 activity raw data (signal) (HDAC2; Conc. 1.37E-08 M, t2): 1721378 | HDAC2 activity raw data (signal) (HDAC2; Conc. 1.52E-09 M, t1): 1807312 | HDAC2 activity raw data (signal) (HDAC2; Conc. 1.52E-09 M, t2): 1809308 | HDAC2 activity raw data (signal) (HDAC2; Conc. 3.33E-06 M, t1): 507679 | HDAC2 activity raw data (signal) (HDAC2; Conc. 3.33E-06 M, t2): 555133 | HDAC2 activity raw data (signal) (HDAC2; Conc. 3.70E-07 M, t1): 1323328 | HDAC2 activity raw data (signal) (HDAC2; Conc. 3.70E-07 M, t2): 1396903 | HDAC2 activity raw data (signal) (HDAC2; Conc. 4.12E-08 M, t1): 1569368 | HDAC2 activity raw data (signal) (HDAC2; Conc. 4.12E-08 M, t2): 1738468 | HDAC2 activity raw data (signal) (HDAC2; Conc. 4.57E-09 M, t1): 1706591 | HDAC2 activity raw data (signal) (HDAC2; Conc. 4.57E-09 M, t2): 1632561 | HDAC2 activity raw data (signal) (HDAC2; Conc. 5.08E-10 M, t1): 1698338 | HDAC2 activity raw data (signal) (HDAC2; Conc. 5.08E-10 M, t2): 1730008 | 6-Selectivity: fold potency for HDAC6 over HDAC2 (HDAC6): 140 fold | HDAC6 activity raw data (signal) (HDAC6; Conc. 1.00E-05 M, t1): -1435 | HDAC6 activity raw data (signal) (HDAC6; Conc. 1.00E-05 M, t2): 8169 | HDAC6 activity raw data (signal) (HDAC6; Conc. 1.11E-06 M, t1): 31133 | HDAC6 activity raw data (signal) (HDAC6; Conc. 1.11E-06 M, t2): 32571 | HDAC6 activity raw data (signal) (HDAC6; Conc. 1.23E-07 M, t1): 145819 | HDAC6 activity raw data (signal) (HDAC6; Conc. 1.23E-07 M, t2): 156860 | HDAC6 activity raw data (signal) (HDAC6; Conc. 1.37E-08 M, t1): 703698 | HDAC6 activity raw data (signal) (HDAC6; Conc. 1.37E-08 M, t2): 730719 | HDAC6 activity raw data (signal) (HDAC6; Conc. 1.52E-09 M, t1): 1278425 | HDAC6 activity raw data (signal) (HDAC6; Conc. 1.52E-09 M, t2): 1354635 | HDAC6 activity raw data (signal) (HDAC6; Conc. 3.33E-06 M, t1): -1405 | HDAC6 activity raw data (signal) (HDAC6; Conc. 3.33E-06 M, t2): 24989 | HDAC6 activity raw data (signal) (HDAC6; Conc. 3.70E-07 M, t1): 60632 | HDAC6 activity raw data (signal) (HDAC6; Conc. 3.70E-07 M, t2): 66340 | HDAC6 activity raw data (signal) (HDAC6; Conc. 4.12E-08 M, t1): 363100 | HDAC6 activity raw data (signal) (HDAC6; Conc. 4.12E-08 M, t2): 336992 | HDAC6 activity raw data (signal) (HDAC6; Conc. 4.57E-09 M, t1): 1071704 | HDAC6 activity raw data (signal) (HDAC6; Conc. 4.57E-09 M, t2): 1051810 | HDAC6 activity raw data (signal) (HDAC6; Conc. 5.08E-10 M, t1): 1597632 | HDAC6 activity raw data (signal) (HDAC6; Conc. 5.08E-10 M, t2): 1554939
